Test results from the NIST ThermoML archive (doi:10.1021/je0342318).
± gives the expanded uncertainty stated by the source.

Tests used:
[1] = Liquid; for mass density: 298.15 K, 101.33 kPa
[2] = refractive index (Na D-line) (dimensionless); settings: 298.15 K; 101.33 kPa; Liquid

Normal boiling temperature [1] | refractive index [2] | mass density [1] | Compound | mass density ([1]; Vibrating tube method)
78.26 ± 0.1 °C | 1.3592 ± 0.0006 |  | CCO [ethanol] | 785.04 ± 0.51 kg/m3
100.81 ± 0.5 °C | 1.4204 ± 0.0006 | 764.87 ± 0.44 kg/m3 | CC1CCCCC1 [methylcyclohexane] | 

Compound | Normal boiling temperature [1] | refractive index [2] | mass density [1] | mass density ([1]; Vibrating tube method)
Cc1ccc(C)cc1 [1,4-dimethylbenzene] | 138.08 ± 0.5 °C | 1.493 ± 0.001 |  | 856.55 ± 0.56 kg/m3
